The text below walks through data of the OligoGym collection.

Oligonucleotides are written 5' to 3', each unit as a sugar letter and its base; * is a phosphorothioate linkage, no mark a phosphodiester; rarer units and linkages stand in square brackets, end groups in braces. Plain capitals give the bases only. d = 2'-deoxy (DNA); r = 2'-OH (RNA)
Note: test concentration or dose not given here.

For one data set, the target named is NOG. Briefly: reporter assay of Huesken 2005. Particulars: siRNA.
With “sense rGrCrUrUrCrArGrUrArArGrCrGrCrUrCrGrUrGdTdT / antisense rCrArCrGrArGrCrGrCrUrUrArCrUrGrArArGrCdAdG”, the normalised inhibition (eCFP-eYFP dual reporter) was found to be 84.7%.

For “sense rGrGrArArCrGrArCrCrUrGrGrGrCrArGrCrCrGdTdT / antisense rCrGrGrCrUrGrCrCrCrArGrGrUrCrGrUrUrCrCdAdC”, the normalised inhibition (eCFP-eYFP dual reporter) worked out at 51.5%.

For the substance “sense rGrGrCrArArGrArArGrCrArGrCrGrCrCrUrArAdTdT / antisense rUrUrArGrGrCrGrCrUrGrCrUrUrCrUrUrGrCrCdCdT”, the normalised inhibition (eCFP-eYFP dual reporter) was 91.3%.

With “sense rGrGrCrArUrGrGrUrGrUrGrCrArArGrCrCrGrUdTdT / antisense rArCrGrGrCrUrUrGrCrArCrArCrCrArUrGrCrCdCdT”, the normalised inhibition (eCFP-eYFP dual reporter) was 79.1%.

Consider “sense rGrGrCrGrGrCrCrArGrCrArCrUrArUrCrUrCrCdTdT / antisense rGrGrArGrArUrArGrUrGrCrUrGrGrCrCrGrCrCdGdG”, for which the normalised inhibition (eCFP-eYFP dual reporter) was 87.4%.

Turning to “sense rGrGrCrUrUrCrArUrGrGrCrCrArCrCrUrCrGrCdTdT / antisense rGrCrGrArGrGrUrGrGrCrCrArUrGrArArGrCrCdTdG”, the normalised inhibition (eCFP-eYFP dual reporter) is 64.6%.

Consider “sense rGrGrGrCrArArGrArArGrCrArGrCrGrCrCrUrAdTdT / antisense rUrArGrGrCrGrCrUrGrCrUrUrCrUrUrGrCrCrCdTdG”, for which the normalised inhibition (eCFP-eYFP dual reporter) was found to be 93.3%.

On to “sense rGrUrCrCrArArGrUrCrCrGrUrGrCrArCrCrUrCdTdT / antisense rGrArGrGrUrGrCrArCrGrGrArCrUrUrGrGrArCdGdG”, for which the normalised inhibition (eCFP-eYFP dual reporter) came out at 55.7%.

Consider “sense rGrUrGrCrArArGrCrCrGrUrCrCrArArGrUrCrCdTdT / antisense rGrGrArCrUrUrGrGrArCrGrGrCrUrUrGrCrArCdAdC”, for which the normalised inhibition (eCFP-eYFP dual reporter) is 75.4%.

For “sense rGrUrGrGrCrUrGrUrGrGrUrCrGrCrArGrArCrAdTdT / antisense rUrGrUrCrUrGrCrGrArCrCrArCrArGrCrCrArCdAdT”, the normalised inhibition (eCFP-eYFP dual reporter) was 83.3%.

For the substance “sense rUrArCrGrCrGrUrGrGrArArCrGrArCrCrUrGrGdTdT / antisense rCrCrArGrGrUrCrGrUrUrCrCrArCrGrCrGrUrAdCdA”, the normalised inhibition (eCFP-eYFP dual reporter) is 51.8%.

For “sense rUrCrArUrCrGrArArCrArCrCrCrArGrArCrCrCdTdT / antisense rGrGrGrUrCrUrGrGrGrUrGrUrUrCrGrArUrGrAdGdG”, the normalised inhibition (eCFP-eYFP dual reporter) is 67.8%.

Take “sense rUrCrCrGrCrCrCrGrGrCrArCrCrCrArGrCrGrAdTdT / antisense rUrCrGrCrUrGrGrGrUrGrCrCrGrGrGrCrGrGrAdTdG”: the normalised inhibition (eCFP-eYFP dual reporter) stood at 72%.

On to “sense rUrCrGrCrArGrArCrArUrUrCrUrGrCrCrCrCrGdTdT / antisense rCrGrGrGrGrCrArGrArArUrGrUrCrUrGrCrGrAdCdC”, for which the normalised inhibition (eCFP-eYFP dual reporter) was found to be 47.6%.

“sense rUrCrUrGrCrCrCrCrGrUrGrCrUrGrUrArCrGrCdTdT / antisense rGrCrGrUrArCrArGrCrArCrGrGrGrGrCrArGrAdAdT”: the normalised inhibition (eCFP-eYFP dual reporter) amounted to 61%.

For “sense rUrGrCrUrGrUrArCrGrCrGrUrGrGrArArCrGrAdTdT / antisense rUrCrGrUrUrCrCrArCrGrCrGrUrArCrArGrCrAdCdG”, the normalised inhibition (eCFP-eYFP dual reporter) was determined as 85.2%.

As for “sense rUrGrGrUrCrGrCrArGrArCrArUrUrCrUrGrCrCdTdT / antisense rGrGrCrArGrArArUrGrUrCrUrGrCrGrArCrCrAdCdA”, the normalised inhibition (eCFP-eYFP dual reporter) is 40.5%.

On to “sense rUrGrGrUrGrGrArCrCrUrCrArUrCrGrArArCrAdTdT / antisense rUrGrUrUrCrGrArUrGrArGrGrUrCrCrArCrCrAdGdG”, for which the normalised inhibition (eCFP-eYFP dual reporter) amounted to 96.4%.

For “sense rUrGrUrGrGrUrCrGrCrArGrArCrArUrUrCrUrGdTdT / antisense rCrArGrArArUrGrUrCrUrGrCrGrArCrCrArCrAdGdC”, the normalised inhibition (eCFP-eYFP dual reporter) was 57.5%.

In the case of “sense rUrUrGrGrCrCrCrArGrGrGrCrArArGrArArGrCdTdT / antisense rGrCrUrUrCrUrUrGrCrCrCrUrGrGrGrCrCrArAdGdC”, the normalised inhibition (eCFP-eYFP dual reporter) was 41.1%.

A further data set addresses UFC1. Kind of data set: reporter assay of Huesken 2005. The settings on record: siRNA.
With “sense rArArArUrCrCrCrUrGrArUrCrUrGrArUrUrCrAdTdT / antisense rUrGrArArUrCrArGrArUrCrArGrGrGrArUrUrUdCdC”, the normalised inhibition (eCFP-eYFP dual reporter) stood at 81%.

On to “sense rArArCrArArGrArArUrGrCrUrGrArCrArArCrGdTdT / antisense rCrGrUrUrGrUrCrArGrCrArUrUrCrUrUrGrUrUdGdT”, for which the normalised inhibition (eCFP-eYFP dual reporter) amounted to 43.3%.

“sense rArArGrArCrArGrCrArArArGrArUrGrUrArCrAdTdT / antisense rUrGrUrArCrArUrCrUrUrUrGrCrUrGrUrCrUrUdTdC”: the normalised inhibition (eCFP-eYFP dual reporter) is 113%.

In the case of “sense rArArGrArUrGrUrArCrArGrGrGrGrUrGrGrCrAdTdT / antisense rUrGrCrCrArCrCrCrCrUrGrUrArCrArUrCrUrUdTdG”, the normalised inhibition (eCFP-eYFP dual reporter) stood at 62.3%.

For the substance “sense rArArGrGrArArCrUrCrGrGrUrGrGrUrUrUrGrGdTdT / antisense rCrCrArArArCrCrArCrCrGrArGrUrUrCrCrUrUdCdC”, the normalised inhibition (eCFP-eYFP dual reporter) is 32.2%.

For the substance “sense rArCrArArCrArArGrArArUrGrCrUrGrArCrArAdTdT / antisense rUrUrGrUrCrArGrCrArUrUrCrUrUrGrUrUrGrUdTdC”, the normalised inhibition (eCFP-eYFP dual reporter) turned out to be 86.4%.

Regarding “sense rArCrCrUrCrCrUrGrArArArUrArUrGrArGrUrUdTdT / antisense rArArCrUrCrArUrArUrUrUrCrArGrGrArGrGrUdCdA”, the normalised inhibition (eCFP-eYFP dual reporter) amounted to 43.5%.

On to “sense rArCrCrUrUrUrGrUrGrGrGrCrCrArGrGrArArUdTdT / antisense rArUrUrCrCrUrGrGrCrCrCrArCrArArArGrGrUdTdT”, for which the normalised inhibition (eCFP-eYFP dual reporter) was found to be 56.9%.

Take “sense rArCrGrGrArUrCrArUrUrUrCrArArArCrCrUrUdTdT / antisense rArArGrGrUrUrUrGrArArArUrGrArUrCrCrGrUdCdA”: the normalised inhibition (eCFP-eYFP dual reporter) worked out at 106%.

Regarding “sense rArCrUrArGrCrUrCrArUrCrUrCrArUrGrGrCrUdTdT / antisense rArGrCrCrArUrGrArGrArUrGrArGrCrUrArGrUdCdC”, the normalised inhibition (eCFP-eYFP dual reporter) was found to be 53.8%.

For the substance “sense rArCrUrGrArArGrGrArGrGrArArUrArUrCrArGdTdT / antisense rCrUrGrArUrArUrUrCrCrUrCrCrUrUrCrArGrUdCdG”, the normalised inhibition (eCFP-eYFP dual reporter) amounted to 75.2%.

With “sense rArGrCrGrArCrUrGrArArGrGrArGrGrArArUrAdTdT / antisense rUrArUrUrCrCrUrCrCrUrUrCrArGrUrCrGrCrUdGdC”, the normalised inhibition (eCFP-eYFP dual reporter) was determined as 93.1%.

As for “sense rArGrGrArArGrGrArArCrUrCrGrGrUrGrGrUrUdTdT / antisense rArArCrCrArCrCrGrArGrUrUrCrCrUrUrCrCrUdTdG”, the normalised inhibition (eCFP-eYFP dual reporter) was 61.8%.

Consider “sense rArGrGrGrCrGrUrCrArUrCrCrArArCrArCrArAdTdT / antisense rUrUrGrUrGrUrUrGrGrArUrGrArCrGrCrCrCrUdTdC”, for which the normalised inhibition (eCFP-eYFP dual reporter) was 107%.

As to “sense rArGrUrCrCrArArCrArArGrGrArArGrGrArArCdTdT / antisense rGrUrUrCrCrUrUrCrCrUrUrGrUrUrGrGrArCrUdCdC”, the normalised inhibition (eCFP-eYFP dual reporter) turned out to be 83.5%.

On to “sense rArGrUrCrCrCrUrUrArUrCrCrGrGrUrArUrGrUdTdT / antisense rArCrArUrArCrCrGrGrArUrArArGrGrGrArCrUdGdA”, for which the normalised inhibition (eCFP-eYFP dual reporter) worked out at 74.6%.

As for “sense rArGrUrUrGrUrGrGrGrUrGrCrArGrCrGrArCrUdTdT / antisense rArGrUrCrGrCrUrGrCrArCrCrCrArCrArArCrUdCdA”, the normalised inhibition (eCFP-eYFP dual reporter) is 80.4%.

As to “sense rArGrUrUrUrGrArCrArUrCrGrArGrUrUrUrGrAdTdT / antisense rUrCrArArArCrUrCrGrArUrGrUrCrArArArCrUdCdA”, the normalised inhibition (eCFP-eYFP dual reporter) was found to be 122%.

In the case of “sense rArUrArUrCrCrUrArCrUrArCrUrGrCrCrCrCrAdTdT / antisense rUrGrGrGrGrCrArGrUrArGrUrArGrGrArUrArUdGdT”, the normalised inhibition (eCFP-eYFP dual reporter) came out at 78.2%.

Consider “sense rArUrCrArCrArUrArUrCrCrUrArCrUrArCrUrGdTdT / antisense rCrArGrUrArGrUrArGrGrArUrArUrGrUrGrArUdAdG”, for which the normalised inhibition (eCFP-eYFP dual reporter) was found to be 69.2%.

For the substance “sense rArUrCrArGrUrCrCrCrUrUrArUrCrCrGrGrUrAdTdT / antisense rUrArCrCrGrGrArUrArArGrGrGrArCrUrGrArUdAdT”, the normalised inhibition (eCFP-eYFP dual reporter) was 99.1%.

On to “sense rArUrCrCrArArCrArCrArArArGrArGrArArArUdTdT / antisense rArUrUrUrCrUrCrUrUrUrGrUrGrUrUrGrGrArUdGdA”, for which the normalised inhibition (eCFP-eYFP dual reporter) is 69.1%.

On to “sense rArUrCrUrCrArUrGrGrCrUrCrUrGrGrGrGrCrUdTdT / antisense rArGrCrCrCrCrArGrArGrCrCrArUrGrArGrArUdGdA”, for which the normalised inhibition (eCFP-eYFP dual reporter) worked out at 53.8%.

“sense rArUrGrGrArArArGrArCrArGrCrArArArGrArUdTdT / antisense rArUrCrUrUrUrGrCrUrGrUrCrUrUrUrCrCrArUdCdC”: the normalised inhibition (eCFP-eYFP dual reporter) turned out to be 69.9%.

With “sense rArUrUrGrCrArGrUrUrCrCrUrGrArGrCrUrGrGdTdT / antisense rCrCrArGrCrUrCrArGrGrArArCrUrGrCrArArUdTdT”, the normalised inhibition (eCFP-eYFP dual reporter) turned out to be 61.6%.

Take “sense rCrArGrCrGrArCrUrGrArArGrGrArGrGrArArUdTdT / antisense rArUrUrCrCrUrCrCrUrUrCrArGrUrCrGrCrUrGdCdA”: the normalised inhibition (eCFP-eYFP dual reporter) came out at 100%.

With “sense rCrArGrUrCrCrCrUrUrArUrCrCrGrGrUrArUrGdTdT / antisense rCrArUrArCrCrGrGrArUrArArGrGrGrArCrUrGdAdT”, the normalised inhibition (eCFP-eYFP dual reporter) worked out at 78.8%.

With “sense rCrCrGrGrArCrCrCrCrGrArGrArUrCrGrUrGrAdTdT / antisense rUrCrArCrGrArUrCrUrCrGrGrGrGrUrCrCrGrGdCdG”, the normalised inhibition (eCFP-eYFP dual reporter) amounted to 56.6%.

Turning to “sense rCrCrGrGrUrArUrGrUrGrGrArGrArArCrArArCdTdT / antisense rGrUrUrGrUrUrCrUrCrCrArCrArUrArCrCrGrGdAdT”, the normalised inhibition (eCFP-eYFP dual reporter) is 72.3%.
